Molecules are shown by their SMILES.

The target in the experiment is T1, interaction between VCAM-1 and VLA-4 (Homo sapiens, UniProt P05556+P13612).
T1 construct: supplied in their natural form as surface molecules on human U937 cells; host or cells: U937 cells carry endogenous VLA-4; The partner hVCAM-1(1-3)-IgG was made in house in transfected COS cells (ATCC CRL1651) and used as culture supernatant
T1 sequence (P13612 34-1032): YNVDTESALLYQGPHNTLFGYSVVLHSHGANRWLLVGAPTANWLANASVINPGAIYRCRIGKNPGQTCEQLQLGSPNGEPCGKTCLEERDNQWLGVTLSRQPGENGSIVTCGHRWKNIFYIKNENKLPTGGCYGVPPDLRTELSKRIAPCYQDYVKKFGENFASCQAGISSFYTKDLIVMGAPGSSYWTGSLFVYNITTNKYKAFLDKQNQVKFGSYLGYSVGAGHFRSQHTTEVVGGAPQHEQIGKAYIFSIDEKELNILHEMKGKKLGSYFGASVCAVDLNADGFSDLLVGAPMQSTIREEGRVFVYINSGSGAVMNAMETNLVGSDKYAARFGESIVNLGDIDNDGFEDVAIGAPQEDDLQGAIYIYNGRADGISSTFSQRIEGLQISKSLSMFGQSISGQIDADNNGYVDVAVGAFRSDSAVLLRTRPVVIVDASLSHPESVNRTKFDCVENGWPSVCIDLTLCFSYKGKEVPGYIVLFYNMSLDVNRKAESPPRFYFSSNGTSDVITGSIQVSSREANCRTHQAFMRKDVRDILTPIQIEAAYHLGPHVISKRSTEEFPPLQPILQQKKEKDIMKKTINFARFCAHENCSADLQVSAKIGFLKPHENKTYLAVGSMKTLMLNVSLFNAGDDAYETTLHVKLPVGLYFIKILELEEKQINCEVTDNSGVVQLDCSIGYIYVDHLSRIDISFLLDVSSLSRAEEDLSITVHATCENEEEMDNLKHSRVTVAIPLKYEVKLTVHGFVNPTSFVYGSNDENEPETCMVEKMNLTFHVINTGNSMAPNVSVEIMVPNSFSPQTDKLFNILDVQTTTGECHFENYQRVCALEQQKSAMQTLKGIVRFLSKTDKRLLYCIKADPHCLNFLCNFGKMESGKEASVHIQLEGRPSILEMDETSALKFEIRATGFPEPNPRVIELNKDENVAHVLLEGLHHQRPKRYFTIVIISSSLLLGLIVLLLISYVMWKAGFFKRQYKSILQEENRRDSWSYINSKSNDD
T1 sequence (P05556 21-798): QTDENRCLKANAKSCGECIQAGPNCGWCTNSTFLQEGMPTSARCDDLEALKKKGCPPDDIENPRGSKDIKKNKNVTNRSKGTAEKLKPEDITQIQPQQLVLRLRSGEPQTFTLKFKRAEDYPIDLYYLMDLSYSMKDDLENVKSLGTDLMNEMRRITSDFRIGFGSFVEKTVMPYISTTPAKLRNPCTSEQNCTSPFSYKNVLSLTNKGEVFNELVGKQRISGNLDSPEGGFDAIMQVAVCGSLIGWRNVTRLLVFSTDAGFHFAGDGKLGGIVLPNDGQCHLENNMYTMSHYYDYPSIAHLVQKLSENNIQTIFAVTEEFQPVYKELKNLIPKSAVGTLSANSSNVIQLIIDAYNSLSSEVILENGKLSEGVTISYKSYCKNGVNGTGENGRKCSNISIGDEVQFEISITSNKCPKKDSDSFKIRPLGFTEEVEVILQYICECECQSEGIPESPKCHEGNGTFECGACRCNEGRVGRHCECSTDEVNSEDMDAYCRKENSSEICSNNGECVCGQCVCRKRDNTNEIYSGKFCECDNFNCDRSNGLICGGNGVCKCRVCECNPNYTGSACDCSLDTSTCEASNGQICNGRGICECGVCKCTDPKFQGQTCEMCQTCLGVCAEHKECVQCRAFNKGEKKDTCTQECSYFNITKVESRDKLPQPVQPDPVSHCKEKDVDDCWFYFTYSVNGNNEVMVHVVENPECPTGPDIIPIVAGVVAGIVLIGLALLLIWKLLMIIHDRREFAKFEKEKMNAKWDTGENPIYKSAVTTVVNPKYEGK
Nature of the experiment: U937/VCAM-1 cell adhesion test (adhesion of U937 cells to hVCAM-1(1-3)-IgG). It counts as cell-based. The following applies: concentration leading to 50% inhibition of adhesion of human U937 cells (ATCC CRL 1593) to hVCAM-1(1-3)-IgG. The source says:
The test method used for the activity of the compounds of the formula I on the interaction between VCAM-1 and VLA-4 is the assay described below which is specific for this interaction. The cellular binding components, i.e., the VLA-4 integrins, are supplied in their natural form as surface molecules on human U937 cells (ATCC CRL 1593). which belong to the leucocytes group. The specific binding components used are genetically engineered recombinant soluble fusion proteins, consisting of the extracytoplasmatic domain of human VCAM-1 and the constant region of a human immunoglobulin of the subclass IgG1.
Assay for the Measurement of the Adhesion of U937 Cells (ATCC CRL 1593) to hVCAM-1(1-3)-IgG
1. Preparation of Human VCAM-1 (1-3)-IgG and Human CD4-IgG
A genetic construct for the expression of the extracellular domain of human VCAM-1, associated with the genetic sequence of the heavy chain of human immunoglobulin IgG1 (hinge, CH2 and CH3 regions), from Dr. Brian Seed, Massachusetts General Hospital. Boston, USA was employed (cf. Damle and Aruffo, Proc. Natl. Acad. Sci. USA 1991, 88, 6403-6407). The soluble fusion protein hVCAM-1(1-3)-IgG contained the three amino-terminal extracellular immunoglobulin-like domains of human VCAM-1 (Damle and Aruffo, Proc. Natl. Acad. Sci. USA 1991, 88, 6403-6407). CD4-IgG (Zettimeissl et al., DNA and Cell Biology 1990, 9, 347) served as a fusion protein for negative controls. The recombinant proteins were expressed as soluble proteins after DEAE/dextran-mediated DNA transfection in COS cells (ATCC CRL1651) according to standard procedures (Ausubel et al., Current Protocols in Molecular Biology, John Wiley & Sons, Inc., 1994).
2. Assay for the Measurement of the Adhesion of U937 Cells to hVCAM-1 (1-3)-IgG
2.1 96-well microtiter test plates (Nunc Maxisorb) were incubated at room temperature for 1 hour with 100 μl/well of a goat-anti-human IgG antibody solution (10 μg/ml in 50 mM tris, pH 9.5). After removal of the antibody solution, washing was carried out once with PBS.
2.2 150 μl/well of a blocking buffer (1% BSA in PBS) were incubated on the plates at room temperature for 0.5 hour. After removal of the blocking buffer, washing was carried out once with PBS.
2.3 100 μl per well of a cell culture supernatant of transfected COS cells were incubated on the plates at room temperature for 1.5 hours. The COS cells were transfected with a plasmid which codes for the three N-terminal immunoglobulin-like domains of VCAM-1, coupled to the Fc part of human IgG1 (hVCAM-1 (1-3)-IgG). The content of hVCAM-1 (1-3)-IgG was about 0.5-1 μg/ml. After removal of the culture supernatant, washing was carried out once with PBS.
2.4 The plates were incubated at room temperature for 20 minutes with 100 μl/well of Fc receptor blocking buffer (1 mg/ml of γ-globulin, 100 mM NaCl, 100 μM MgCl2, 100 μM MnCl2, 100 μM CaCl2, 1 mg/ml of BSA in 50 mM HEPES, pH 7.5). After removal of the Fc receptor blocking buffer, washing was carried out once with PBS.
2.5 20 μl of binding buffer (100 mM NaCl, 100 μM MgCl2, 100 μM MnCl2, 100 μM CaCl2, 1 mg/ml of BSA in 50 mM HEPES, pH 7.5) were initially introduced, and the substances to be tested were added in 10 μl of binding buffer and incubated for 20 minutes. The controls used were antibodies against VCAM-1 (BBT, No. BBA6) and against VLA-4 (immunotech, No. 0764).
2.6 U937 cells were incubated in Fc receptor blocking buffer for 20 minutes and then added by pipette in a concentration of 1×10^6/ml and in an amount of 100 μl per well ([…]).
2.7 The plates were slowly immersed at an angle of 45° in stop buffer (100 mM NaCl, 100 μM MgCl2, 100 μM MnCl2, 100 μM CaCl2 in 25 mM tris, pH 7.5) and shaken off. The process was repeated.
2.8 50 μl/well of a dye solution (16.7 μg/ml of Hoechst Dye 33258, 4% formaldehyde, 0.5% triton X-100 in PBS) were then incubated on the plates for 15 minutes. […]
In turn, `Cc1ccccc1NC(=O)Nc1ccc(CN2C(=O)N(CC(=O)N[C@@H](CC(=O)O)c3ccc4c(c3)OCO4)C(=O)C2(C)C)cc1` [Example 93, (S)-3-(2-(4,4-Dimethyl-3-(4-(3-(2-methylphenyl)ureido)benzyl)-2,5-dioxoimidazolidin-1-yl)acetylamino)-3-(3,4-methylenedioxyphenyl)propionic Acid] yielded an IC50 of 7 nM. This counts as single-digit nanomolar. In the case of `Cc1ccccc1NC(=O)Nc1ccc(CN2C(=O)N(CC(=O)NC[C@H](NC(=O)OCc3ccccc3)C(=O)O)C(=O)C2(C)C)cc1` [Example 94] it was 22 nM. With `Cc1ccccc1NC(=O)Nc1ccc(CN2C(=O)N([C@@H](CC(C)C)C(=O)N[C@@H](CC(=O)O)C(=O)N[C@H](C(=O)N3CCC[C@H]3C(=O)O)C(C)C)C(=O)C2(C)C)cc1` [Example 133, ((S)-2-(4,4-Dimethyl-3-(4-(3-(2-methylphenyl)ureido)benzyl)-2,5-dioxoimidazolidin-1-yl)-2-(2-methylpropyl)acetyl)-L-aspartyl-L-valyl-L-proline] the figure was 1.5 nM; with `Cc1ccccc1NC(=O)Nc1ccc(CN2C(=O)N([C@@H](CC(C)C)C(=O)N[C@@H](CC(=O)O)c3ccc4ccccc4c3)C(=O)C2(C)C)cc1` [Example 184], 4 nM. In the case of `Cc1ccccc1NC(=O)Nc1ccc(CN2C(=O)N([C@@H](CC(C)C)C(=O)N[C@@H](CC(=O)O)c3ccc(-c4ccccc4)cc3)C(=O)C2(C)C)cc1` [Example 185] it was 11 nM. Regarding `Cc1ccccc1NC(=O)Nc1ccc(CN2C(=O)N([C@@H](CC(C)C)C(=O)N[C@@H](CC(=O)O)c3cccc4ccccc34)C(=O)C2(C)C)cc1` [Example 186], inhibition was half-maximal at 2.9 nM (IC50). In turn, `Cc1ccccc1NC(=O)Nc1ccc(CN2C(=O)N([C@@H](CC(C)C)C(=O)N[C@@H](CC(=O)O)c3c(F)c(F)c(F)c(F)c3F)C(=O)C2(C)C)cc1` [Example 187] yielded an IC50 of 25 nM. In the case of `COc1ccc([C@H](CC(=O)O)NC(=O)[C@H](CC(C)C)N2C(=O)N(Cc3ccc(NC(=O)Nc4ccccc4C)cc3)C(C)(C)C2=O)c(OC)c1` [Example 188] it was 1.6 nM; in that of `COc1ccc(C(CC(=O)O)NC(=O)C(CC(C)C)N2C(=O)N(Cc3ccc(NC(=O)Nc4ccccc4C)cc3)C(C)(c3ccccc3)C2=O)cc1OC` (centres unmarked) [Example 190], 8 nM.

Compound `Cc1ccccc1NC(=O)Nc1ccc(CN2C(=O)N(C(CC(C)C)C(=O)NC(CC(=O)O)c3ccc(C(C)(C)C)cc3)C(=O)C2(C)c2ccccc2)cc1` (centres unmarked) [Example 191] showed an IC50 of 122 nM.

Turning to `Cc1ccccc1NC(=O)Nc1ccc(CN2C(=O)N(C(CC(C)C)C(=O)NC(CC(=O)O)c3ccc(F)cc3)C(=O)C2(C)c2ccccc2)cc1` (centres unmarked) [Example 192], the midpoint of inhibition, the IC50, lay at 50 nM. In the case of `COc1ccc(C(CC(=O)O)NC(=O)C(CC(C)C)N2C(=O)N(Cc3ccc(NC(=O)Nc4ccccc4C)cc3)C(C)(c3ccccc3)C2=O)cc1` (centres unmarked) [Example 193], the IC50 stood at 15 nM. Compound `Cc1ccccc1NC(=O)Nc1ccc(CN2C(=O)N(C(CC(C)C)C(=O)NC(CC(=O)O)c3ccc(CC(C)C)cc3)C(=O)C2(C)c2ccccc2)cc1` (centres unmarked) [Example 194] yielded an IC50 of 450 nM. For the compound `COc1cccc(C(CC(=O)O)NC(=O)C(CC(C)C)N2C(=O)N(Cc3ccc(NC(=O)Nc4ccccc4C)cc3)C(C)(c3ccccc3)C2=O)c1OC` (centres unmarked) [Example 201], half-maximal inhibition (IC50) required 25 nM.

The compound `Cc1ccccc1NC(=O)Nc1ccc(CN2C(=O)N(C(CC(C)C)C(=O)NC(CC(=O)O)c3c(F)cccc3F)C(=O)C2(C)c2ccccc2)cc1` (centres unmarked) [Example 205] gave an IC50 of 95 nM. This IC50 is about 3.8-fold higher than that of the compound before. In the case of `Cc1ccccc1NC(=O)Nc1ccc(CN2C(=O)N(C(CC(C)C)C(=O)NC(CC(=O)O)c3ccccc3F)C(=O)C2(C)c2ccccc2)cc1` (centres unmarked) [Example 214] it was 17 nM; in that of `Cc1ccccc1NC(=O)Nc1ccc(CN2C(=O)N(C(CC(C)C)C(=O)NC(CC(=O)O)c3ccc(F)cc3)C(=O)C2(C)c2ccccc2)cc1` (centres unmarked) [Example 216], 50 nM.

Source of the values: patent publication US6521654B2, “Substituted imidazolidine derivatives, their preparation, their use and pharmaceutical preparations including them” (Aventis Pharma Deutschland GmbH, priority 1997, dated 2003).
